Data taken from ChEMBL document CHEMBL3885861, “Open TG-GATES”.

Organism: Rattus norvegicus
Experiment: Open TG-GATES - Regimen: Single
Format: toxicity, organism-based, Sprague-Dawley
Parameters: regimen Single, gender Male, age 6 weeks
Settings: in vivo, po, 0 mg/kg, route gavage, dose level Control; for APTT / Bas / Eos / Fbg / Hb / Ht / Lym / MCH / MCHC / MCV / Mono / Neu / PT / Plat / RBC / Ret / WBC: tissue Blood; for KIDNEY_L / KIDNEY_R / KIDNEY_TOTAL: tissue Kidney; for LIVER: tissue Liver; for A/G / ALP / ALT / AST / BUN / CRE / Ca / Cl / DBIL / GLC / IP / K / LDH / Na / PL / RALB / TBIL / TC / TG / TP / gamma-GTP: tissue Plasma

Compound: CN/C(=N/CCSCc1nc[nH]c1C)NC#N [CIMETIDINE]
- TERMINAL_BW (3 h): 213.9 g
- APTT (3 h): 18.4 s
- Bas (3 h): 0%
- Eos (3 h): 1%
- Fbg (3 h): 217.6 mg/dL
- Hb (3 h): 12.7 g/dL
- Ht (3 h): 37.4%
- Lym (3 h): 75.4%
- MCH (3 h): 21.3 pg
- MCHC (3 h): 34%
- MCV (3 h): 62.5 fL
- Mono (3 h): 3.2%
- Neu (3 h): 19.2%
- PT (3 h): 12.6 s
- Plat (3 h): 139.7 x10_4/uL
- RBC (3 h): 598.4 x10_4/ul
- Ret (3 h): 7.9%
- WBC (3 h): 95.7 x10_2/uL
- KIDNEY_L (3 h): 1 g
- KIDNEY_R (3 h): 1 g
- KIDNEY_TOTAL (3 h): 2 g
- LIVER (3 h): 10.1 g
- A/G (3 h): 1.7
- ALP (3 h): 1080.4 IU/L
- ALT (3 h): 37.4 IU/L
- AST (3 h): 71.2 IU/L
- BUN (3 h): 12.4 mg/dL
- CRE (3 h): 0.3 mg/dL
- Ca (3 h): 10.8 mg/dL
- Cl (3 h): 102.6 meq/L
- DBIL (3 h): 0.072 mg/dL
- GLC (3 h): 189 mg/dL
- IP (3 h): 8.8 mg/dL
- K (3 h): 3.7 meq/L
- LDH (3 h): 134.2 IU/L
- Na (3 h): 140.8 meq/L
- PL (3 h): 147.6 mg/dL
- RALB (3 h): 3.4 g/dL
- TBIL (3 h): 0.1 mg/dL
- TC (3 h): 77.2 mg/dL
- TG (3 h): 65 mg/dL
- TP (3 h): 5.4 g/dL
- gamma-GTP (3 h): 1.4 IU/L
- TERMINAL_BW (6 h): 211.8 g
- APTT (6 h): 19.8 s
- Bas (6 h): 0%
- Eos (6 h): 1%
- Fbg (6 h): 219.2 mg/dL
- Hb (6 h): 13.2 g/dL
- Ht (6 h): 37.8%
- Lym (6 h): 75.6%
- MCH (6 h): 21.6 pg
- MCHC (6 h): 34.7%
- MCV (6 h): 62.2 fL
- Mono (6 h): 3.4%
- Neu (6 h): 18.8%
- PT (6 h): 12.8 s
- Plat (6 h): 127.2 x10_4/uL
- RBC (6 h): 607.6 x10_4/ul
- Ret (6 h): 8%
- WBC (6 h): 107.6 x10_2/uL
- KIDNEY_L (6 h): 1 g
- KIDNEY_R (6 h): 1 g
- KIDNEY_TOTAL (6 h): 1.9 g
- LIVER (6 h): 9.5 g
- A/G (6 h): 1.5
- ALP (6 h): 902.6 IU/L
- ALT (6 h): 38 IU/L
- AST (6 h): 70.2 IU/L
- BUN (6 h): 10.2 mg/dL
- CRE (6 h): 0.4 mg/dL
- Ca (6 h): 10.7 mg/dL
- Cl (6 h): 101.6 meq/L
- DBIL (6 h): 0.074 mg/dL
- GLC (6 h): 195.4 mg/dL
- IP (6 h): 9.7 mg/dL
- K (6 h): 3.8 meq/L
- LDH (6 h): 161.6 IU/L
- Na (6 h): 140.6 meq/L
- PL (6 h): 151.2 mg/dL
- RALB (6 h): 3.3 g/dL
- TBIL (6 h): 0.1 mg/dL
- TC (6 h): 81.8 mg/dL
- TG (6 h): 64.4 mg/dL
- TP (6 h): 5.5 g/dL
- gamma-GTP (6 h): 1.4 IU/L
- TERMINAL_BW (9 h): 206.6 g
- APTT (9 h): 17.6 s
- Bas (9 h): 0%
- Eos (9 h): 1%
- Fbg (9 h): 222.6 mg/dL
- Hb (9 h): 13.1 g/dL
- Ht (9 h): 37.9%
- Lym (9 h): 75.6%
- MCH (9 h): 21.5 pg
- MCHC (9 h): 34.6%
- MCV (9 h): 62 fL
- Mono (9 h): 3%
- Neu (9 h): 19.2%
- PT (9 h): 12.8 s
- Plat (9 h): 128 x10_4/uL
- RBC (9 h): 612 x10_4/ul
- Ret (9 h): 7.6%
- WBC (9 h): 93 x10_2/uL
- KIDNEY_L (9 h): 0.9 g
- KIDNEY_R (9 h): 0.9 g
- KIDNEY_TOTAL (9 h): 1.8 g
- LIVER (9 h): 8.7 g
- A/G (9 h): 1.6
- ALP (9 h): 842 IU/L
- ALT (9 h): 30 IU/L
- AST (9 h): 66.2 IU/L
- BUN (9 h): 12.6 mg/dL
- CRE (9 h): 0.3 mg/dL
- Ca (9 h): 10.5 mg/dL
- Cl (9 h): 102.2 meq/L
- DBIL (9 h): 0.074 mg/dL
- GLC (9 h): 189.2 mg/dL
- IP (9 h): 10 mg/dL
- K (9 h): 3.8 meq/L
- LDH (9 h): 120.4 IU/L
- Na (9 h): 140.8 meq/L
- PL (9 h): 139 mg/dL
- RALB (9 h): 3.3 g/dL
- TBIL (9 h): 0.1 mg/dL
- TC (9 h): 77.4 mg/dL
- TG (9 h): 47.8 mg/dL
- TP (9 h): 5.4 g/dL
- gamma-GTP (9 h): 1.4 IU/L
- TERMINAL_BW (24 h): 224.9 g
- APTT (24 h): 18.8 s
- Bas (24 h): 0.2%
- Eos (24 h): 0.8%
- Fbg (24 h): 218.6 mg/dL
- Hb (24 h): 13.5 g/dL
- Ht (24 h): 40%
- Lym (24 h): 81.4%
- MCH (24 h): 21.6 pg
- MCHC (24 h): 33.8%
- MCV (24 h): 63.8 fL
- Mono (24 h): 3%
- Neu (24 h): 13.2%
- PT (24 h): 12.1 s
- Plat (24 h): 130.4 x10_4/uL
- RBC (24 h): 627.6 x10_4/ul
- Ret (24 h): 7.2%
- WBC (24 h): 98.2 x10_2/uL
- KIDNEY_L (24 h): 1 g
- KIDNEY_R (24 h): 1 g
- KIDNEY_TOTAL (24 h): 2 g
- LIVER (24 h): 11 g
- A/G (24 h): 1.6
- ALP (24 h): 959.8 IU/L
- ALT (24 h): 36.8 IU/L
- AST (24 h): 64 IU/L
- BUN (24 h): 15.6 mg/dL
- CRE (24 h): 0.4 mg/dL
- Ca (24 h): 10.9 mg/dL
- Cl (24 h): 101.6 meq/L
- DBIL (24 h): 0.1 mg/dL
- GLC (24 h): 223.8 mg/dL
- IP (24 h): 7.7 mg/dL
- K (24 h): 4 meq/L
- LDH (24 h): 147.6 IU/L
- Na (24 h): 140.2 meq/L
- PL (24 h): 158.6 mg/dL
- RALB (24 h): 3.5 g/dL
- TBIL (24 h): 0.2 mg/dL
- TC (24 h): 79.8 mg/dL
- TG (24 h): 118.8 mg/dL
- TP (24 h): 5.6 g/dL
- gamma-GTP (24 h): 1.8 IU/L
